Experiment: xn = mol fraction of the nth substance listed
Settings: 101 kPa

O + CCCC[n+]1ccn(C)c1.F[B-](F)(F)F
x1 = 1
Settings	viscosity [mPa·s]
303.15 K	0.8
308.15 K	0.72
313.15 K	0.65
318.15 K	0.6
323.15 K	0.55
343.15 K	0.4
353.15 K	0.35

CCCC[n+]1ccn(C)c1.F[B-](F)(F)F + O
viscosity [mPa·s]
Settings	x2 = 0	x2 = 0.1002	x2 = 0.209	x2 = 0.2984	x2 = 0.4001	x2 = 0.5014	x2 = 0.6004	x2 = 0.7	x2 = 0.8	x2 = 0.8999
303.15 K	–	47.6	34.9	23.3	16.6	12	10	6.7	4.36	2.53
308.15 K	58.2	–	–	19.4	13.6	10.5	8.7	5.85	3.8	2.21
313.15 K	–	30.7	23.5	16.2	11.4	–	–	5.35	3.36	1.95
318.15 K	37.8	25.7	19.6	14.1	9.7	7.8	–	4.53	2.99	1.73
323.15 K	31.1	21.5	–	11.7	–	6.8	5.69	4.05	2.68	1.54
333.15 K	21.5	15.4	12	8.6	6.2	5.28	4.75	3.29	2.19	1.28
343.15 K	15.6	11.5	9	–	4.68	4.24	–	–	1.82	–
353.15 K	11.5	–	6.8	4.96	3.56	3.44	–	2.31	1.54	0.91

Source: a compilation of properties of binary mixtures (doi:10.1021/je050387r)
